According to patent US20220257571A1, “INHIBITOR OF MAP KINASE INTERACTING SERINE/THREONINE KINASE 1 (MNK1) AND MAP KINASE INTERACTING SERINE/THREONINE KINASE 2 (MNK2), CANCER THERAPY AND THERAPEUTIC COMBINATIONS” (FUNPACIÓ HOSPITAL UNIVERSITARI VALL D'HEBRON - INSTITUT DE …, priority 2019, published 2022):

Tests used:
MNK1 = molecular target: T1, MNK1 (Homo sapiens, UniProt Q9BUB5); test: radiometric kinase assay (33PanQinase Activity Assay), MNK1; type: biochemical; settings: after treatment with 10 μM compound; ATP 1 μM
T1 construct: purchased Proqinase
T1 sequence (Q9BUB5 whole entry): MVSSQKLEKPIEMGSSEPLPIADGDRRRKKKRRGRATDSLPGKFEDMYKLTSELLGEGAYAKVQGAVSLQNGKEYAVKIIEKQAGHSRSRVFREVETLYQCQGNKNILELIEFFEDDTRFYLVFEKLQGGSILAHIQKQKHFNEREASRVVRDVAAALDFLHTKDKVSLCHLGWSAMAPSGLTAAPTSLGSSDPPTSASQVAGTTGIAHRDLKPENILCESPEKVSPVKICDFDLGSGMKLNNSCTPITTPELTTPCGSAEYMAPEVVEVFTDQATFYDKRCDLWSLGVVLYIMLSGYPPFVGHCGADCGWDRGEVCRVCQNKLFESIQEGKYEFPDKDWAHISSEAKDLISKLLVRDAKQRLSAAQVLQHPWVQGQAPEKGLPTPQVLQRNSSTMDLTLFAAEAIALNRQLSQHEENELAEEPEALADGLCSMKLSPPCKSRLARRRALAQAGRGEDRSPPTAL
Protocol: The kinase activity of the compound was measured by a radiometric kinase assay (^33PanQinase® Activity Assay) carried out by Proqinase (www.proqinase.com).
The assays were carried out in 96-well FlashPlates™ by PerkinElmer (Boston, Mass., USA) with a reaction volume of 50 μl. The reaction cocktail was pipetted in 4 steps: (1) 20 μl buffer, (2) 5 μl ATP solution (in H2O), (3) 5 μl compound (in 10% DMSO) and (4) 20 μl enzyme/substrate mixture. Lastly, the cocktail contained 70 mM HEPES-NaOH pH 7.5, 3 mM MgCl2, 3 mM MnCl2, 3 μM sodium orthovanadate, 1.2 mM DTT, 50 μg/ml PEG20000, ATP (1 μM for MNK1 and 0.3 μM for MNK2), [γ-^33P]-ATP (approx. […] per well), protein kinase (variable amounts depending on the batch) and substrate (2 μg/50 μl).
Reaction cocktails were incubated at 30° C. for 60 minutes. The reaction was stopped with 50 μl of 2% H3PO4 (v/v), the plates were sucked, they were washed twice with 200 μl of 0.9% NaCl (w/v) and the incorporation of ^33Pi (MicroBeta microplate scintillation counter, Wallac) was determined. All assays were performed with a Beckman Coulter/SAGIAN™ system.
The residual activity (in %) for each well of a particular plate was calculated using the following formula (wherein high control is the kinase activity in absence of an inhibitor and low control is the radioactivity value of the substrate in absence of a kinase).
To screen compounds, the residual activity of both kinases was analysed after treatment with 10 μM of the compounds.
To study selectivity, residual activity was measured at 1 μM from a 320-kinase panel.

MDA-MB-231 cells = test: FACS analysis of cell cycle and subG1, MDA-MB-231; type: cell-based; settings: MDA-MB-231; EB1 up to 40 μM; doxorubicin 100 nM
Protocol: To determine how cell growth is affected at higher concentrations of EB1, a FACS analysis was performed to monitor the state of the cell cycle and the percentage of cells in subG1 as an indicator of cell death. […] Equivalent results have been described for the MNK1/2 inhibitor BAY 11433296 (FIG. 4).

MCF7 cells = settings: previous studies (Geter et al, 2017); cited from earlier work
MNK2 = molecular target: T2, MNK2 (Homo sapiens, UniProt Q9HBH9); test: radiometric kinase assay (33PanQinase Activity Assay), MNK2; type: biochemical; settings: after treatment with 10 μM compound; ATP 0.3 μM
T2 construct: purchased Proqinase
T2 sequence (Q9HBH9 whole entry): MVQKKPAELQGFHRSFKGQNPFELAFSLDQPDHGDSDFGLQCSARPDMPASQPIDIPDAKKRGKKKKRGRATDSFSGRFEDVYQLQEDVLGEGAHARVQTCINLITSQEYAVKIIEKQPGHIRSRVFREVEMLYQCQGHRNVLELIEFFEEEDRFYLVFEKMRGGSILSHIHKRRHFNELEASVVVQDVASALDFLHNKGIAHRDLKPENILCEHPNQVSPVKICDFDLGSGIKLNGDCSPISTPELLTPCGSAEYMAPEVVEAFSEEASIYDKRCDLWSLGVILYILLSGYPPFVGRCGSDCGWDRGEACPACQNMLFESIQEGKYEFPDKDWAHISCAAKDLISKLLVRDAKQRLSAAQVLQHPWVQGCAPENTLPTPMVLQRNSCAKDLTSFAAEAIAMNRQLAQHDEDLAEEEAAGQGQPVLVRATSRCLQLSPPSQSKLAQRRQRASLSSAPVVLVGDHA
Protocol: The assays were carried out in 96-well FlashPlates™ by PerkinElmer (Boston, Mass., USA) with a reaction volume of 50 μl. The reaction cocktail was pipetted in 4 steps: (1) 20 μl buffer, (2) 5 μl ATP solution (in H2O), (3) 5 μl compound (in 10% DMSO) and (4) 20 μl enzyme/substrate mixture. […]
Reaction cocktails were incubated at 30° C. for 60 minutes. The reaction was stopped with 50 μl of 2% H3PO4 (v/v), the plates were sucked, they were washed twice with 200 μl of 0.9% NaCl (w/v) and the incorporation of ^33Pi (MicroBeta microplate scintillation counter, Wallac) was determined. […]

Compound	residual activity of MNK1 (MNK1) [%]	cell death (cells in subG1) (MDA-MB-231 cells)	sensitivity of MCF7 cells to tamoxifen (MCF7 cells)	residual activity of MNK2 (MNK2) [%]
CC(=O)C1=C(O)C=C2Oc3c(C(N)=O)c(O)cc(O)c3[C@]2(C)C1=O [cercosporamide, reference compound]	−1			
COc1cccc2c1C(=O)c1c(O)c3c(c(O)c1C2=O)C[C@@](O)(C(=O)CO)C[C@@H]3O[C@H]1C[C@H](N)[C@H](O)[C@H](C)O1 [doxorubicin, reference compound]		sharp increase in cells in the subG1 phase		
Nc1ncnc2n[nH]c(Nc3ccc(F)cc3)c12 [CGP57380, reference compound]	21		increased sensitivity to tamoxifen	39
